# Key:
# Staphylococcus aureus [1] = experiment: Antibacterial activity against methicillin-resistant Staphylococcus aureus 316031 clinical isolate after 20 to 24 hrs by two-fold microdilution method; type: functional
# Staphylococcus aureus [2] = experiment: Antibacterial activity against methicillin-resistant Staphylococcus aureus 112106 clinical isolate after 20 to 24 hrs by two-fold microdilution method; type: functional
# [3] = Solubility of the compound in water at 25 degC measured after shaking for 4 hrs by UV method; type: physicochemical
# Staphylococcus aureus [4] = experiment: Antibacterial activity against methicillin-resistant Staphylococcus aureus 215073 clinical isolate after 20 to 24 hrs by two-fold microdilution method; type: functional
# Staphylococcus aureus [5] = experiment: Antibacterial activity against methicillin-resistant Staphylococcus aureus 1214023 clinical isolate after 20 to 24 hrs by two-fold microdilution method; type: functional
# Staphylococcus aureus [6] = experiment: Antibacterial activity against methicillin-resistant Staphylococcus aureus 111423 clinical isolate after 20 to 24 hrs by two-fold microdilution method; type: functional
# Staphylococcus aureus [7] = experiment: Antibacterial activity against methicillin-resistant Staphylococcus aureus 111625 clinical isolate after 20 to 24 hrs by two-fold microdilution method; type: functional
# Staphylococcus aureus [8] = experiment: Antibacterial activity against methicillin-resistant Staphylococcus aureus GLH14 clinical isolate after 20 to 24 hrs by two-fold microdilution method; type: functional
# Staphylococcus aureus [9] = experiment: Antibacterial activity against methicillin-resistant Staphylococcus aureus 1211026 clinical isolate after 20 to 24 hrs by two-fold microdilution method; type: functional
# Staphylococcus aureus [10] = experiment: Antibacterial activity against methicillin-resistant Staphylococcus aureus 20534 clinical isolate after 20 to 24 hrs by two-fold microdilution method; type: functional
# Staphylococcus aureus [11] = experiment: Antibacterial activity against methicillin-resistant Staphylococcus aureus 110414 clinical isolate after 20 to 24 hrs by two-fold microdilution method; type: functional
# Staphylococcus aureus [12] = experiment: Antibacterial activity against methicillin-resistant Staphylococcus aureus 531220 clinical isolate after 20 to 24 hrs by two-fold microdilution method; type: functional
# Staphylococcus aureus [13] = experiment: Antibacterial activity against methicillin-resistant Staphylococcus aureus 1212221 clinical isolate after 20 to 24 hrs by two-fold microdilution method; type: functional
# Staphylococcus aureus [14] = experiment: Antibacterial activity against methicillin-resistant Staphylococcus aureus 518036 clinical isolate after 20 to 24 hrs by two-fold microdilution method; type: functional
# Staphylococcus aureus [15] = experiment: Antibacterial activity against methicillin-resistant Staphylococcus aureus 1103006 clinical isolate after 20 to 24 hrs by two-fold microdilution method; type: functional
# Staphylococcus aureus [16] = experiment: Antibacterial activity against methicillin-resistant Staphylococcus aureus 20339 clinical isolate after 20 to 24 hrs by two-fold microdilution method; type: functional
# Staphylococcus aureus [17] = experiment: Antibacterial activity against methicillin-resistant Staphylococcus aureus 502025 clinical isolate after 20 to 24 hrs by two-fold microdilution method; type: functional
# Staphylococcus aureus [18] = experiment: Antibacterial activity against methicillin-resistant Staphylococcus aureus 1025022 clinical isolate after 20 to 24 hrs by two-fold microdilution method; type: functional
# Escherichia coli = experiment: Antibacterial activity against Escherichia coli ATCC 25922 after 20 to 24 hrs by two-fold microdilution method; type: functional
# Staphylococcus aureus [19] = experiment: Antibacterial activity against methicillin-resistant Staphylococcus aureus 519030 clinical isolate after 20 to 24 hrs by two-fold microdilution method; type: functional
# Staphylococcus aureus [20] = experiment: Antibacterial activity against methicillin-resistant Staphylococcus aureus 1207026 clinical isolate after 20 to 24 hrs by two-fold microdilution method; type: functional
# Staphylococcus aureus [21] = experiment: Antibacterial activity against methicillin-resistant Staphylococcus aureus 131215 clinical isolate after 20 to 24 hrs by two-fold microdilution method; type: functional
# Staphylococcus aureus [22] = experiment: Antibacterial activity against methicillin-resistant Staphylococcus aureus 1024010 clinical isolate after 20 to 24 hrs by two-fold microdilution method; type: functional
# Staphylococcus aureus [23] = experiment: Antibacterial activity against methicillin-resistant Staphylococcus aureus 202045 clinical isolate after 20 to 24 hrs by two-fold microdilution method; type: functional
# Staphylococcus aureus [24] = experiment: Antibacterial activity against methicillin-resistant Staphylococcus aureus 908046 clinical isolate after 20 to 24 hrs by two-fold microdilution method; type: functional
# Staphylococcus aureus [25] = experiment: Antibacterial activity against methicillin-resistant Staphylococcus aureus 316038 clinical isolate after 20 to 24 hrs by two-fold microdilution method; type: functional
# Staphylococcus aureus [26] = experiment: Antibacterial activity against methicillin-resistant Staphylococcus aureus 130031 clinical isolate after 20 to 24 hrs by two-fold microdilution method; type: functional
# Staphylococcus aureus [27] = experiment: Antibacterial activity against methicillin-resistant Staphylococcus aureus 912014 clinical isolate after 20 to 24 hrs by two-fold microdilution method; type: functional
# Staphylococcus aureus [28] = experiment: Antibacterial activity against methicillin-resistant Staphylococcus aureus 1012039 clinical isolate after 20 to 24 hrs by two-fold microdilution method; type: functional
# Staphylococcus aureus [29] = experiment: Antibacterial activity against methicillin-resistant Staphylococcus aureus 1216052 clinical isolate after 20 to 24 hrs by two-fold microdilution method; type: functional
# Staphylococcus aureus [30] = experiment: Antibacterial activity against methicillin-resistant Staphylococcus aureus 224001 clinical isolate after 20 to 24 hrs by two-fold microdilution method; type: functional
# Staphylococcus aureus [31] = experiment: Antibacterial activity against methicillin-resistant Staphylococcus aureus 1215028 clinical isolate after 20 to 24 hrs by two-fold microdilution method; type: functional
# Staphylococcus aureus [32] = experiment: Antibacterial activity against methicillin-resistant Staphylococcus aureus 519238 clinical isolate after 20 to 24 hrs by two-fold microdilution method; type: functional
# Staphylococcus aureus [33] = experiment: Antibacterial activity against methicillin-resistant Staphylococcus aureus 120827 clinical isolate after 20 to 24 hrs by two-fold microdilution method; type: functional
# Staphylococcus aureus [34] = experiment: Antibacterial activity against methicillin-resistant Staphylococcus aureus 1106003 clinical isolate after 20 to 24 hrs by two-fold microdilution method; type: functional
# Staphylococcus aureus [35] = experiment: Antibacterial activity against methicillin-resistant Staphylococcus aureus 304243 clinical isolate after 20 to 24 hrs by two-fold microdilution method; type: functional
# Staphylococcus aureus [36] = experiment: Antibacterial activity against methicillin-resistant Staphylococcus aureus 110328-1 clinical isolate after 20 to 24 hrs by two-fold microdilution method; type: functional
# Staphylococcus aureus [37] = experiment: Antibacterial activity against methicillin-resistant Staphylococcus aureus 109244 clinical isolate after 20 to 24 hrs by two-fold microdilution method; type: functional
# Staphylococcus aureus [38] = experiment: Antibacterial activity against methicillin-resistant Staphylococcus aureus 221022 clinical isolate after 20 to 24 hrs by two-fold microdilution method; type: functional
# Staphylococcus aureus [39] = experiment: Antibacterial activity against methicillin-resistant Staphylococcus aureus 1212057-1 clinical isolate after 20 to 24 hrs by two-fold microdilution method; type: functional
# Streptococcus pyogenes = experiment: Antibacterial activity against Streptococcus pyogenes ATCC 19615 after 20 to 24 hrs by two-fold microdilution method; type: functional
# Enterococcus faecalis = experiment: Antibacterial activity against Enterococcus faecalis ATCC 29212 after 20 to 24 hrs by two-fold microdilution method; type: functional
# Staphylococcus aureus [40] = experiment: Antibacterial activity against methicillin-resistant Staphylococcus aureus clinical isolate after 20 to 24 hrs by two-fold microdilution method; type: functional
# Staphylococcus aureus [41] = experiment: Antibacterial activity against methicillin-resistant Staphylococcus aureus 414244 clinical isolate after 20 to 24 hrs by two-fold microdilution method; type: functional
# Staphylococcus aureus [42] = experiment: Antibacterial activity against methicillin-resistant Staphylococcus aureus 212014 clinical isolate after 20 to 24 hrs by two-fold microdilution method; type: functional
# Staphylococcus aureus [43] = experiment: Antibacterial activity against methicillin-resistant Staphylococcus aureus 219236 clinical isolate after 20 to 24 hrs by two-fold microdilution method; type: functional
# Staphylococcus aureus [44] = experiment: Antibacterial activity against methicillin-resistant Staphylococcus aureus 123152 clinical isolate after 20 to 24 hrs by two-fold microdilution method; type: functional
structure (smiles),measurement,setting,value
O=C1c2cccnc2C(=O)c2c1c(C(=O)OCCCCCCN1CCCCC1)c1ccc(Br)cn21,MIC,Staphylococcus aureus [1],0.125 µg/mL
same,MIC,Staphylococcus aureus [2],0.063 µg/mL
same,solubility thermodynamic at 4 h,[3]; water,1980 µg/mL
same,MIC,Staphylococcus aureus [4],0.016 µg/mL
same,MIC,Staphylococcus aureus [5],≤ 0.0078 µg/mL
same,MIC,Staphylococcus aureus [6],> 16 µg/mL
same,MIC,Staphylococcus aureus [7],0.063 µg/mL
same,MIC,Staphylococcus aureus [8],0.063 µg/mL
same,MIC,Staphylococcus aureus [9],0.031 µg/mL
same,MIC,Staphylococcus aureus [10],0.125 µg/mL
same,MIC,Staphylococcus aureus [11],0.031 µg/mL
same,MIC,Staphylococcus aureus [12],0.25 µg/mL
same,MIC,Staphylococcus aureus [13],0.031 µg/mL
same,MIC,Staphylococcus aureus [14],0.125 µg/mL
same,MIC,Staphylococcus aureus [15],> 16 µg/mL
same,MIC,Staphylococcus aureus [16],0.125 µg/mL
same,MIC,Staphylococcus aureus [17],0.063 µg/mL
same,MIC,Staphylococcus aureus [18],0.063 µg/mL
same,MIC,Escherichia coli,2 µg/mL
same,MIC,Staphylococcus aureus [19],0.063 µg/mL
same,MIC,Staphylococcus aureus [20],0.063 µg/mL
same,MIC,Staphylococcus aureus [21],0.031 µg/mL
same,MIC,Staphylococcus aureus [22],0.063 µg/mL
same,MIC,Staphylococcus aureus [23],≤ 0.0078 µg/mL
same,MIC,Staphylococcus aureus [24],0.031 µg/mL
same,MIC,Staphylococcus aureus [25],0.031 µg/mL
same,MIC,Staphylococcus aureus [26],0.125 µg/mL
same,MIC,Staphylococcus aureus [27],0.063 µg/mL
same,MIC,Staphylococcus aureus [28],0.063 µg/mL
same,MIC,Staphylococcus aureus [29],> 16 µg/mL
same,MIC,Staphylococcus aureus [30],0.125 µg/mL
same,MIC,Staphylococcus aureus [31],0.063 µg/mL
same,MIC,Staphylococcus aureus [32],0.125 µg/mL
same,MIC,Staphylococcus aureus [33],0.031 µg/mL
same,MIC,Staphylococcus aureus [34],16 µg/mL
same,MIC,Staphylococcus aureus [35],0.016 µg/mL
same,MIC,Staphylococcus aureus [36],0.125 µg/mL
same,MIC,Staphylococcus aureus [37],0.031 µg/mL
same,MIC,Staphylococcus aureus [38],0.125 µg/mL
same,MIC,Staphylococcus aureus [39],0.016 µg/mL
same,MIC,Streptococcus pyogenes,2 µg/mL
same,MIC,Enterococcus faecalis,0.125 µg/mL
same,MIC50,Staphylococcus aureus [40],0.063 µg/mL
same,MIC90,Staphylococcus aureus [40],0.125 µg/mL
same,MIC,Staphylococcus aureus [41],0.063 µg/mL
same,MIC,Staphylococcus aureus [42],≤ 0.0078 µg/mL
same,MIC,Staphylococcus aureus [43],≤ 0.0078 µg/mL
same,MIC,Staphylococcus aureus [44],0.125 µg/mL
O=C1c2cccnc2C(=O)c2c1c(C(=O)OCCCCCCN1CCOCC1)c1ccc(Br)cn21,MIC,Staphylococcus aureus [1],≤ 0.0078 µg/mL
same,MIC,Staphylococcus aureus [2],≤ 0.0078 µg/mL
same,solubility,"[3]; buffer, 4 h",Insoluble
same,MIC,Staphylococcus aureus [4],≤ 0.0078 µg/mL
same,MIC,Staphylococcus aureus [5],≤ 0.0078 µg/mL
same,MIC,Staphylococcus aureus [6],16 µg/mL
same,MIC,Staphylococcus aureus [7],≤ 0.0078 µg/mL
same,MIC,Staphylococcus aureus [8],≤ 0.0078 µg/mL
same,MIC,Staphylococcus aureus [9],≤ 0.0078 µg/mL
same,MIC,Staphylococcus aureus [10],≤ 0.0078 µg/mL
same,MIC,Staphylococcus aureus [11],≤ 0.0078 µg/mL
same,MIC,Staphylococcus aureus [12],≤ 0.0078 µg/mL
same,MIC,Staphylococcus aureus [13],≤ 0.0078 µg/mL
same,MIC,Staphylococcus aureus [14],≤ 0.0078 µg/mL
same,MIC,Staphylococcus aureus [15],> 16 µg/mL
same,MIC,Staphylococcus aureus [16],≤ 0.0078 µg/mL
same,MIC,Staphylococcus aureus [17],≤ 0.0078 µg/mL
same,MIC,Staphylococcus aureus [18],≤ 0.0078 µg/mL
same,MIC,Escherichia coli,8 µg/mL
same,MIC,Staphylococcus aureus [19],≤ 0.0078 µg/mL
same,MIC,Staphylococcus aureus [20],≤ 0.0078 µg/mL
same,MIC,Staphylococcus aureus [21],0.0078 µg/mL
same,MIC,Staphylococcus aureus [22],≤ 0.0078 µg/mL
same,MIC,Staphylococcus aureus [23],≤ 0.0078 µg/mL
same,MIC,Staphylococcus aureus [24],≤ 0.0078 µg/mL
same,MIC,Staphylococcus aureus [25],≤ 0.0078 µg/mL
same,MIC,Staphylococcus aureus [26],≤ 0.0078 µg/mL
same,MIC,Staphylococcus aureus [27],≤ 0.0078 µg/mL
same,MIC,Staphylococcus aureus [28],≤ 0.0078 µg/mL
same,MIC,Staphylococcus aureus [29],16 µg/mL
same,MIC,Staphylococcus aureus [30],≤ 0.0078 µg/mL
same,MIC,Staphylococcus aureus [31],≤ 0.0078 µg/mL
same,MIC,Staphylococcus aureus [32],≤ 0.0078 µg/mL
same,MIC,Staphylococcus aureus [33],≤ 0.0078 µg/mL
same,MIC,Staphylococcus aureus [34],> 16 µg/mL
same,MIC,Staphylococcus aureus [35],0.031 µg/mL
same,MIC,Staphylococcus aureus [36],≤ 0.0078 µg/mL
same,MIC,Staphylococcus aureus [37],≤ 0.0078 µg/mL
same,MIC,Staphylococcus aureus [38],≤ 0.0078 µg/mL
same,MIC,Staphylococcus aureus [39],≤ 0.0078 µg/mL
same,MIC,Streptococcus pyogenes,2 µg/mL
same,MIC,Enterococcus faecalis,0.063 µg/mL
same,MIC50,Staphylococcus aureus [40],≤ 0.0078 µg/mL
same,MIC90,Staphylococcus aureus [40],≤ 0.0078 µg/mL
same,MIC,Staphylococcus aureus [41],≤ 0.0078 µg/mL
same,MIC,Staphylococcus aureus [42],≤ 0.0078 µg/mL
same,MIC,Staphylococcus aureus [43],≤ 0.0078 µg/mL
same,MIC,Staphylococcus aureus [44],≤ 0.0078 µg/mL

# Reference: ChEMBL document CHEMBL4004803, “Syntheses and antibacterial activity of soluble 9-bromo substituted indolizinoquinoline-5,12-dione derivatives” (Eur J Med Chem, 2017)
